Test results reported in ChEMBL document CHEMBL3885861, “Open TG-GATES”.

Species: Rattus norvegicus
Assay: Open TG-GATES - Regimen: Single
Type: toxicity, organism-based, Sprague-Dawley
Parameters: regimen Single, gender Male, age 6 weeks
Details: in vivo, po, 5 mg/kg, route gavage, dose level Low; for APTT / Bas / Eos / Fbg / Hb / Ht / Lym / MCH / MCHC / MCV / Mono / Neu / PT / Plat / RBC / Ret / WBC: tissue Blood; for KIDNEY_L / KIDNEY_R / KIDNEY_TOTAL: tissue Kidney; for LIVER: tissue Liver; for A/G / ALP / ALT / AST / BUN / CRE / Ca / Cl / DBIL / GLC / IP / K / LDH / Na / PL / RALB / TBIL / TC / TG / TP / gamma-GTP: tissue Plasma

`CC(=N)S` [THIOACETAMIDE] showed a TERMINAL_BW (3 h) of 189.9 g, an APTT (3 h) of 17.2 s and a Bas (3 h) of 0%. For the same compound, the Eos (3 h) was 0.6%, the Fbg (3 h) was 225 mg/dL and the Hb (3 h) was 13.1 g/dL. For the same compound, the Ht (3 h) was 39.7%, the Lym (3 h) was 81.4% and the MCH (3 h) was 21.3 pg. The MCHC (3 h) was 32.9%, the MCV (3 h) was 64.6 fL and the Mono (3 h) was 6.4%. It also gave a Neu (3 h) of 11.4%, a PT (3 h) of 12.1 s and a Plat (3 h) of 105.8 x10_4/uL. It also gave an RBC (3 h) of 614.6 x10_4/ul, a Ret (3 h) of 9.2% and a WBC (3 h) of 119.1 x10_2/uL. It also gave a KIDNEY_L (3 h) of 0.9 g, a KIDNEY_R (3 h) of 0.9 g and a KIDNEY_TOTAL (3 h) of 1.7 g. The LIVER (3 h) was 8.7 g, the A/G (3 h) was 2.1 and the ALP (3 h) was 842.8 IU/L. It also gave an ALT (3 h) of 31.2 IU/L, an AST (3 h) of 64 IU/L and a BUN (3 h) of 12.2 mg/dL. The CRE (3 h) was 0.5 mg/dL, the Ca (3 h) was 10.9 mg/dL and the Cl (3 h) was 103.4 meq/L. For the same compound, the DBIL (3 h) was 0 mg/dL, the GLC (3 h) was 179.8 mg/dL and the IP (3 h) was 9.2 mg/dL. It also gave a K (3 h) of 4.4 meq/L, an LDH (3 h) of 97.6 IU/L and a Na (3 h) of 138.2 meq/L. The PL (3 h) was 149.6 mg/dL, the RALB (3 h) was 3.8 g/dL and the TBIL (3 h) was 0.3 mg/dL. For the same compound, the TC (3 h) was 85.8 mg/dL, the TG (3 h) was 70.6 mg/dL and the TP (3 h) was 5.6 g/dL. It also gave a gamma-GTP (3 h) of 2 IU/L, a TERMINAL_BW (6 h) of 185.4 g and an APTT (6 h) of 17.8 s. The Bas (6 h) was 0%, the Eos (6 h) was 1% and the Fbg (6 h) was 237.8 mg/dL. The Hb (6 h) was 13.2 g/dL, the Ht (6 h) was 40.2% and the Lym (6 h) was 70.4%. It also gave an MCH (6 h) of 21.2 pg, an MCHC (6 h) of 32.9% and an MCV (6 h) of 64.4 fL. The Mono (6 h) was 9.4%, the Neu (6 h) was 19% and the PT (6 h) was 12.4 s. For the same compound, the Plat (6 h) was 113.6 x10_4/uL, the RBC (6 h) was 625.4 x10_4/ul and the Ret (6 h) was 9.1%. It also gave a WBC (6 h) of 94.9 x10_2/uL, a KIDNEY_L (6 h) of 0.9 g and a KIDNEY_R (6 h) of 0.9 g. The KIDNEY_TOTAL (6 h) was 1.8 g, the LIVER (6 h) was 8.2 g and the A/G (6 h) was 2.2. The ALP (6 h) was 729.4 IU/L, the ALT (6 h) was 29.8 IU/L and the AST (6 h) was 62.4 IU/L. For the same compound, the BUN (6 h) was 10.2 mg/dL, the CRE (6 h) was 0.6 mg/dL and the Ca (6 h) was 10.4 mg/dL. It also gave a Cl (6 h) of 104.4 meq/L, a DBIL (6 h) of 0.002 mg/dL and a GLC (6 h) of 179.6 mg/dL. The IP (6 h) was 9 mg/dL, the K (6 h) was 4.9 meq/L and the LDH (6 h) was 76 IU/L. For the same compound, the Na (6 h) was 137.2 meq/L, the PL (6 h) was 132.2 mg/dL and the RALB (6 h) was 3.8 g/dL. It also gave a TBIL (6 h) of 0.4 mg/dL, a TC (6 h) of 80.2 mg/dL and a TG (6 h) of 41.4 mg/dL. The TP (6 h) was 5.6 g/dL, the gamma-GTP (6 h) was 1.2 IU/L and the TERMINAL_BW (9 h) was 186.4 g. The APTT (9 h) was 16.8 s, the Bas (9 h) was 0% and the Eos (9 h) was 0.6%. The Fbg (9 h) was 216.2 mg/dL, the Hb (9 h) was 12.8 g/dL and the Ht (9 h) was 39.3%. For the same compound, the Lym (9 h) was 79.2%, the MCH (9 h) was 21.2 pg and the MCHC (9 h) was 32.5%. For the same compound, the MCV (9 h) was 65.1 fL, the Mono (9 h) was 6.2% and the Neu (9 h) was 13.8%. The PT (9 h) was 12.3 s, the Plat (9 h) was 102.7 x10_4/uL and the RBC (9 h) was 606 x10_4/ul. The Ret (9 h) was 9.4%, the WBC (9 h) was 94.1 x10_2/uL and the KIDNEY_L (9 h) was 0.9 g. It also gave a KIDNEY_R (9 h) of 0.9 g, a KIDNEY_TOTAL (9 h) of 1.7 g and an LIVER (9 h) of 7.8 g. For the same compound, the A/G (9 h) was 2.3, the ALP (9 h) was 794.4 IU/L and the ALT (9 h) was 32 IU/L. It also gave an AST (9 h) of 61.6 IU/L, a BUN (9 h) of 11.6 mg/dL and a CRE (9 h) of 0.5 mg/dL. It also gave a Ca (9 h) of 10.3 mg/dL, a Cl (9 h) of 103.8 meq/L and a DBIL (9 h) of 0.01 mg/dL. The GLC (9 h) was 180 mg/dL, the IP (9 h) was 9.8 mg/dL and the K (9 h) was 4.4 meq/L. It also gave an LDH (9 h) of 78.4 IU/L, a Na (9 h) of 137.4 meq/L and a PL (9 h) of 138.6 mg/dL. For the same compound, the RALB (9 h) was 3.8 g/dL, the TBIL (9 h) was 0.4 mg/dL and the TC (9 h) was 84.4 mg/dL. The TG (9 h) was 35.4 mg/dL, the TP (9 h) was 5.5 g/dL and the gamma-GTP (9 h) was 1.6 IU/L. For the same compound, the TERMINAL_BW (24 h) was 198.9 g, the APTT (24 h) was 16.7 s and the Bas (24 h) was 0%. For the same compound, the Eos (24 h) was 0.8%, the Fbg (24 h) was 219.6 mg/dL and the Hb (24 h) was 13.3 g/dL. It also gave a Ht (24 h) of 40.1%, a Lym (24 h) of 78.6% and an MCH (24 h) of 22 pg. The MCHC (24 h) was 33.2%, the MCV (24 h) was 66.3 fL and the Mono (24 h) was 9.4%. For the same compound, the Neu (24 h) was 11.4%, the PT (24 h) was 12.3 s and the Plat (24 h) was 102.8 x10_4/uL. The RBC (24 h) was 606.4 x10_4/ul, the Ret (24 h) was 8.7% and the WBC (24 h) was 127.7 x10_2/uL. It also gave a KIDNEY_L (24 h) of 0.9 g, a KIDNEY_R (24 h) of 0.9 g and a KIDNEY_TOTAL (24 h) of 1.8 g. The LIVER (24 h) was 9.7 g, the A/G (24 h) was 2.1 and the ALP (24 h) was 891 IU/L. For the same compound, the ALT (24 h) was 38.8 IU/L, the AST (24 h) was 68.6 IU/L and the BUN (24 h) was 17 mg/dL. The CRE (24 h) was 0.5 mg/dL, the Ca (24 h) was 10.6 mg/dL and the Cl (24 h) was 103.8 meq/L. It also gave a DBIL (24 h) of 0.01 mg/dL, a GLC (24 h) of 179.6 mg/dL and an IP (24 h) of 7.6 mg/dL. For the same compound, the K (24 h) was 5.3 meq/L, the LDH (24 h) was 84.2 IU/L and the Na (24 h) was 136.6 meq/L. It also gave a PL (24 h) of 157.6 mg/dL, an RALB (24 h) of 3.9 g/dL and a TBIL (24 h) of 0.3 mg/dL. The TC (24 h) was 85.6 mg/dL, the TG (24 h) was 110.8 mg/dL and the TP (24 h) was 5.8 g/dL. It also gave a gamma-GTP (24 h) of 1.6 IU/L.
